Measurements as given in article PMC10899790, “A bromodomain-independent mechanism of gene regulation by the BET inhibitor JQ1: direct activation of nuclear receptor PXR” (Nucleic Acids Research, 2023).

Columns and labels:
human PXR = molecular target: T1, human PXR (Homo sapiens, UniProt O75469); assay: PXR transactivation assay (CYP3A4-luciferase reporter)
T1 sequence (O75469 1-434): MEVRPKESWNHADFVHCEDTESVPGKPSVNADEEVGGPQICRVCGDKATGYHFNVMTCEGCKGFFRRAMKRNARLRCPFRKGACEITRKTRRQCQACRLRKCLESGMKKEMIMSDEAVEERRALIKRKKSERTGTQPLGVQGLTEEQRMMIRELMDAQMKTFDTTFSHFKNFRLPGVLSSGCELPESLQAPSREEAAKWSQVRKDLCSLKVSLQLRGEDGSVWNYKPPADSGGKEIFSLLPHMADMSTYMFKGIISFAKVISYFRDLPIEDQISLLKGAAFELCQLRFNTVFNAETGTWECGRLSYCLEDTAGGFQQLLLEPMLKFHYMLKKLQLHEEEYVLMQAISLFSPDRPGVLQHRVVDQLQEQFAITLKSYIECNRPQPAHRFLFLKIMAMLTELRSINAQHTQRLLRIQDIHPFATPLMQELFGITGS
Method: Assays were performed similarly as previously described with minor modifications ([30–32]). HepG2 cells (7.5 × 10^5/well) were plated in six-well tissue culture-treated plates. The following day, cells were co-transfected with pGL3-CYP3A4-luc (2 μg/well), pRL-CMV (200 ng/well) and 100 ng/well of either empty vector (pcDNA3), pcDNA3-FLAG-PXR, pCMV6-mPXR or pGL4.53-PGK-PXR using Lipofectamine 3000 (Thermo Fisher Scientific). Twenty-four hours after transfection, cells were trypsinized and suspended in phenol red-free DMEM (Thermo Fisher Scientific) supplemented with 5% charcoal/dextran-treated FBS (HyClone), and 1 × 10^4 cells/well in 25 μl media were added to white 384-well plates. […] After 24 h, the Dual-Glo Luciferase Assay System (Promega) and EnVision microplate reader (PerkinElmer) were used to measure firefly and Renilla luciferase activities. CMV-driven Renilla luciferase was used as an indicator of general transcriptional modulation by the test compounds and is plotted as fold change (FC) relative to DMSO controls. Assays utilizing pGL4.54[luc2/TK], pGL4.53[luc2/PGK], or pGL4.13[luc2/SV40] were similarly performed and normalized. For the PXR-responsive CYP3A4-luciferase reporter, the measured relative light units (RLU) were normalized for each well using equation (1),
RLUT0901317 represents the measured RLU from wells containing 1 μM T0901317. For mPXR assays, 5 μM PCN was used in place of T0901317.

HepG2 cells = assay: Cytotoxicity assay (CellTiter-Glo); type: cell-based, human; conditions: HepG2, 24 h
Method: HepG2 cells (1 × 10^4/well in 25 μl phenol red-free DMEM supplemented with 5% charcoal/dextran-treated FBS) were plated and treated as in the transactivation assays. After 24 h compound treatment, the CellTiter-Glo Luminescent Cell Viability Assay (Promega) and an EnVision microplate reader were used to assess cytotoxicity. DMSO wells with cells served as negative controls, and wells without cells served as positive controls. The averaged luminescence signal of the wells without cells was subtracted from the luminescence signals of all other wells, and the background subtracted values were normalized to DMSO-treated wells containing cells to obtain percent cell viability.

CMV promoter = assay: CMV-Renilla luciferase reporter; type: cell-based, human; conditions: HepG2, 24 h; fold change relative to DMSO
PXR LBD = molecular target: T2, PXR LBD (Homo sapiens, UniProt O75469); assay: TR-FRET PXR LBD ligand binding assay; conditions: TR-FRET competition with BODIPY FL vindoline
T2 construct: GST-PXR LBD protein (cat. # PV4841) were purchased from Thermo Fisher Scientific; purchased Thermo Fisher Scientific PV4841
T2 sequence (O75469 146-433 limits assumed): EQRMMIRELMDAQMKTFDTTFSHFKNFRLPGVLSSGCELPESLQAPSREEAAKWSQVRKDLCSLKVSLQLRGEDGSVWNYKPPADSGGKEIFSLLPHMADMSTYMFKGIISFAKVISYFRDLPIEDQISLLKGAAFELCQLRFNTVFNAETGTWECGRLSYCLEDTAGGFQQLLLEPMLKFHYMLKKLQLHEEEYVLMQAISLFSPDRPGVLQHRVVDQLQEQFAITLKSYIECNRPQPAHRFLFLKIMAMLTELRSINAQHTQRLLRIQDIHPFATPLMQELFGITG
Method: The TR-FRET PXR LBD ligand binding assay measures binding of PXR ligands by competition with a fluorescently labeled ligand (BODIPY FL vindoline) (Supplementary Figure S3) and was performed as previously described with minor modifications ([24]). […] BODIPY FL vindoline (15 μl/well, 133.3 nM in assay buffer) was dispensed into 384-well low-volume black assay plates. An Echo 650 Acoustic Liquid Handler then dispensed 60 nl/well of compound stocks or DMSO.

PXR = assay: RNA induction in HepaRG: PXR RNA (RT-qPCR); type: cell-based, human; conditions: differentiated HepaRG, 24 h; FC relative to DMSO
Method: (§1) Experiments with HepaRG cells were conducted similarly to previously described ([45]), with modifications. HepaRG cells were seeded in collagen-coated 24-well plates at 5 × 10^5 cells/well in HCM. Cells were differentiated for two weeks with HCM containing 2% DMSO. The cells were then treated with the respective chemicals for 24 h in HCM. The final DMSO concentration for the treatment was 0.5%. Total RNA was isolated from cells with Maxwell 16 LEV SimplyRNA Tissue Kits (Promega), and cDNA was generated from 250 ng of RNA with the SuperScript VILO cDNA Synthesis Kit (Thermo Fisher Scientific). Quantitative real-time polymerase chain reaction (RT-qPCR) was conducted with 2 μl of cDNA using TaqMan Fast Advanced Master Mix (Applied Biosystems) in an Applied Biosystems 7500 Fast Real-Time PCR System. TaqMan gene expression assays specific for CYP3A4 (Hs00604506_m1), PXR (Hs01114267_m1), MYC (Hs00153408_m1) and RNA18S (Hs03928990_g1) were purchased from Thermo Fisher Scientific. Fold induction values were calculated according to the 2^−ΔΔCt method, where ΔCt represents the differences in cycle threshold numbers between the target gene and reference gene and ΔΔCt represents the relative change in these differences between the control and treatment groups ([46]). RNA18S was used as the reference gene for relative quantification of all other genes.

BET proteins = tested on: BET proteins; set-up: method as in PMID 20871596; conditions: cited from earlier work
CYP3A4 = assay: RNA induction in HepaRG: CYP3A4 mRNA (RT-qPCR); conditions: differentiated HepaRG, 24 h
Method: as §1

## Cc1sc2c(c1C)C(c1ccc(Cl)cc1)=N[C@H](CC(=O)OC(C)(C)C)c1nnc(C)n1-2 [(−)-JQ1]
Human PXR; HepG2, 24 h, PGK-driven PXR
  activation of CYP3A4-luciferase reporter with PXR expressed from a PGK promoter: retained activation of the CYP3A4-luciferase reporter
Human PXR; human
  activation of PXR-responsive CYP3A4-luciferase reporter: activated the CYP3A4-luciferase reporter with similar potency but greater efficacy than JQ1
HepG2 cells
  cytotoxicity (cell viability): decreased cytotoxicity
HepG2 cells; listed as (-)-JQ1
  cytotoxicity (cell viability): less cytotoxic than JQ1
CMV promoter
  CMV-Renilla luciferase reporter expression: only marginally induced the CMV-Renilla luciferase reporter at high concentrations
PXR LBD
  binding to purified PXR LBD (binding potency): comparable to rifampicin in binding potencies
PXR
  PXR RNA expression: much less than that observed with the BET inhibitors
BET proteins
  binding to BET proteins: does not bind BET proteins
CYP3A4; FC relative to DMSO
  endogenous CYP3A4 mRNA expression: more robustly induced CYP3A4 expression than JQ1
CYP3A4; co-treated with SPA70
  endogenous CYP3A4 mRNA expression on co-treatment with SPA70: without reducing CYP3A4 in the presence of SPA70
